Common to all, as to format: functional
Common to all, as to conditions: read-out: GI

For one test, the system named is 786-0. Kind of test: Growth inhibition of human 786-0 cells at 10 uM incubated for 48 hrs by sulforhodamine B assay relative to control.
A further test relates to CAKI-1. Kind of test: Growth inhibition of human CAKI-1 cells at 10 uM incubated for 48 hrs by sulforhodamine B assay relative to control.
A further test relates to SK-OV-3. Kind of test: Growth inhibition of human SK-OV-3 cells at 10 uM incubated for 48 hrs by sulforhodamine B assay relative to control. In general terms: The SRB assay estimates cell density from bound dye.
In the next test the test system is NCI-H322M. Kind of test: Growth inhibition of human NCI-H322M cells at 10 uM incubated for 48 hrs by sulforhodamine B assay relative to control.
The subject of a further test is T47D. Kind of test: Growth inhibition of human T47D cells at 10 uM incubated for 48 hrs by sulforhodamine B assay relative to control.
The subject of the next test is SW-620. Kind of test: Growth inhibition of human SW-620 cells at 10 uM incubated for 48 hrs by sulforhodamine B assay relative to control.
In a further test the test system is U-251. Kind of test: Growth inhibition of human U-251 cells at 10 uM incubated for 48 hrs by sulforhodamine B assay relative to control.
The next test concerns SK-MEL-2. Kind of test: Growth inhibition of human SK-MEL-2 cells at 10 uM incubated for 48 hrs by sulforhodamine B assay relative to control.
The test system of a further test is HOP-62. Kind of test: Growth inhibition of human HOP-62 cells at 10 uM incubated for 48 hrs by sulforhodamine B assay relative to control.
Another test has as its system RPMI-8226. Kind of test: Growth inhibition of human RPMI-8226 cells at 10 uM incubated for 48 hrs by sulforhodamine B assay relative to control.
In another test the test system is SR. Kind of test: Growth inhibition of human SR cells at 10 uM incubated for 48 hrs by sulforhodamine B assay relative to control.
For another test, the system named is A549. Kind of test: Growth inhibition of human A549/ATCC cells at 10 uM incubated for 48 hrs by sulforhodamine B assay relative to control.
The test system of the next test is NCI-H460. Kind of test: Growth inhibition of human NCI-H460 cells at 10 uM incubated for 48 hrs by sulforhodamine B assay relative to control.
In another test the test system is ACHN. Kind of test: Growth inhibition of human ACHN cells at 10 uM incubated for 48 hrs by sulforhodamine B assay relative to control.
A further test deals with EKVX. Kind of test: Growth inhibition of human EKVX cells at 10 uM incubated for 48 hrs by sulforhodamine B assay relative to control.
A further test has as its system A498. Kind of test: Growth inhibition of human A498 cells at 10 uM incubated for 48 hrs by sulforhodamine B assay relative to control.

For `O=C(CN1CCCCC1)Nc1ccc(-c2nc3ccccc3s2)cc1`, the inhibition of growth at 10 µM in the test with 786-0 is 13.9%; in the test on CAKI-1 it was 9.3%; in the test on SK-OV-3, 4.61%; with NCI-H322M it was -11.9%; in the test on T47D, 17.8%; with SW-620, -9.04%. Further, the inhibition of growth at 10 µM in the test with U-251 is 22.8%; in the test on SK-MEL-2 it was -7.06%; with HOP-62, 7.87%; with RPMI-8226, 11.3%; in the test with SR, 56%; in the test on A549 it was 5.89%. Also, the inhibition of growth at 10 µM in the test with NCI-H460 was -1.42%; in the test on ACHN, -5.42%.
Turning to `O=C(CNC1CCCCC1)Nc1ccc(-c2nc3ccccc3s2)cc1`, the inhibition of growth at 10 µM with 786-0 was 29.4%; in the test on CAKI-1, 14%; in the test on SK-OV-3 it was 9.23%; with NCI-H322M, 8.27%; in the test with T47D, 30.9%; with SW-620, -0.38%. In addition, the inhibition of growth at 10 µM was 34.9% in the test with U-251; -4.63% in the test with SK-MEL-2; 14.8% in the test on HOP-62; 22.4% with RPMI-8226; 90.3% in the test on SR; 12% with A549. Further, the inhibition of growth at 10 µM in the test on NCI-H460 was 8.69%; in the test on ACHN, 0.89%.
On to `O=C(CNCc1ccccc1)Nc1ccc(-c2nc3ccccc3s2)cc1`, for which the inhibition of growth at 10 µM in the test on 786-0 was 8.55%; in the test with CAKI-1, 9.29%; in the test with SK-OV-3, -18.4%; in the test with NCI-H322M, 17.8%; in the test on T47D it was 11.6%; in the test on SW-620, -1.34%. Also, the inhibition of growth at 10 µM was 18.6% with U-251; -7.25% with SK-MEL-2; -6.53% in the test with HOP-62; 10.1% in the test with RPMI-8226; 21.3% with SR; 22.7% with A549. Besides, the inhibition of growth at 10 µM stood at 3.57% with NCI-H460 and 0.1% with ACHN.
Regarding `O=C(CN1CCOCC1)Nc1ccc(-c2nc3ccccc3s2)cc1`, the inhibition of growth at 10 µM with 786-0 was -1.3%; in the test with CAKI-1, 0.31%; in the test on SK-OV-3 it was -21%; in the test on NCI-H322M, -0.11%; in the test with T47D, 6.73%; in the test with SW-620 it was -7.93%. The inhibition of growth at 10 µM in the test with U-251 was 10.5%; in the test on SK-MEL-2, -14.6%; with HOP-62, -6.41%; in the test on RPMI-8226 it was 6%; in the test on SR, -2.12%; in the test on A549, 6.19%. The inhibition of growth at 10 µM in the test on NCI-H460 is 0.34%; with ACHN, -4.03%.
On to `O=C(CNc1ccccc1)Nc1ccc(-c2nc3ccccc3s2)cc1`, for which the inhibition of growth at 10 µM was 15.4% in the test with 786-0; 1.16% with CAKI-1; -24.1% in the test on SK-OV-3; 12.9% with NCI-H322M; 21.4% in the test with T47D; -6.41% in the test on SW-620. In addition, the inhibition of growth at 10 µM was 14.8% in the test on U-251; -4.93% with SK-MEL-2; -12% in the test on HOP-62; 12.5% in the test on RPMI-8226; 74.5% in the test on SR; 9.72% in the test on A549. For the same molecule, the inhibition of growth at 10 µM in the test on NCI-H460 is 0.08%; with ACHN, -2.46%.
In the case of `COc1ccc(NCC(=O)Nc2ccc(-c3nc4ccccc4s3)cc2)cc1`, the inhibition of growth at 10 µM is 14.8% in the test on 786-0; -2.81% in the test on CAKI-1; -7.58% with SK-OV-3; 3% in the test on NCI-H322M; 31.2% with T47D; -4.02% with SW-620. Further, the inhibition of growth at 10 µM with U-251 was 19.1%; with SK-MEL-2, -15.7%; in the test on HOP-62 it was 14.6%; in the test on RPMI-8226 it was 13.6%; in the test on SR it was 15.6%; with A549 it was 10.5%. The figures for the inhibition of growth at 10 µM in the test on NCI-H460 and with ACHN were 0.74% and -3.5%, respectively.
Take `NS(=O)(=O)c1ccc(NCC(=O)Nc2ccc(-c3nc4ccccc4s3)cc2)cc1`: the inhibition of growth at 10 µM was 87.9% in the test with 786-0; 7.14% in the test on CAKI-1; -5.77% in the test on SK-OV-3; 12% in the test on NCI-H322M; 53.6% in the test on T47D; 36.3% in the test on SW-620. The inhibition of growth at 10 µM was 28.7% in the test on U-251; 12.2% in the test on SK-MEL-2; -17.8% in the test with HOP-62; 63.3% with RPMI-8226; 84% in the test on SR; 7.37% with A549. The inhibition of growth at 10 µM in the test with NCI-H460 is 7.45%; with ACHN, -4.96%.
In the case of `Cc1ccc(NCC(=O)Nc2ccc(-c3nc4ccccc4s3)cc2)cc1`, the inhibition of growth at 10 µM in the test with 786-0 was 10.2%; in the test with CAKI-1, 0.82%; in the test on SK-OV-3, -13.1%; in the test with NCI-H322M, 4.73%; in the test on T47D, 33.8%; with SW-620, -7.34%. In addition, the inhibition of growth at 10 µM in the test with U-251 was 19.4%; with SK-MEL-2, -6.66%; with HOP-62 it was 3.62%; in the test with RPMI-8226, 18.6%; in the test with SR, 19.1%; in the test with A549 it was 13.8%. Also, the inhibition of growth at 10 µM was -2.34% in the test on NCI-H460 and -6.82% with ACHN.
Turning to `O=C(CNc1nc2ccccc2s1)Nc1ccc(-c2nc3ccccc3s2)cc1`, the inhibition of growth at 10 µM was -9.9% in the test with EKVX; -1.86% in the test with 786-0; -0.18% in the test with CAKI-1; -7.21% in the test with SK-OV-3; 7.75% with NCI-H322M; 26.1% in the test on T47D. For the same molecule, the inhibition of growth at 10 µM was -8.73% in the test with SW-620; 10.9% in the test on U-251; -4.25% in the test on HOP-62; -7.46% in the test on RPMI-8226; 8.72% in the test on SR; -0.04% in the test on A549. Besides, the inhibition of growth at 10 µM with A498 is 6.15%; in the test on NCI-H460, 0.21%; with ACHN it was -6.65%.

The record behind these values is ChEMBL document CHEMBL4765227, “Hit to lead optimization of a series of N-[4-(1,3-benzothiazol-2-yl)phenyl]acetamides as monoacylglycerol lipase inhibitors with potential anticancer activity” (Eur J Med Chem, 2016).
